{"source": "patent US12071488B2", "about": "“Method of sensitizing cancer cells to anti-cancer treatment” (TWO TO BIOTECH LTD., priority 2017, dated 2024)", "key": {"MDA-MB-231 cells": {"system": "MDA-MB-231 cells", "experiment": "FACS analysis of apoptosis (Annexin) in MDA-MB-231 cells", "format": "cell-based, human", "text": "(§1) Cells were examined for apoptosis or HER2 expression using FACS analysis. The HER2 antibody used was abcam ab16901. The marker Annexin (Enco) was used for assessment of apoptosis."}, "MDA-MB-468 cells [1]": {"system": "MDA-MB-468 cells", "experiment": "Analysis of apoptosis in MDA-MB-468 cells with APC1 and Herceptin", "format": "cell-based, human", "settings": "Herceptin 12 μg/ml, APC1 250 μg/ml (FIG. 9)", "text": "as §1"}, "estrogen receptor alpha": {"system": "estrogen receptor alpha", "experiment": "Western blot analysis of estrogen receptor alpha expression in MDA-MB-231 cells", "format": "cell-based, human", "settings": "APC1 250 μg/ml once a week for one week or twice a week for 3 or 4 weeks", "text": "Abbreviations: M, protein parker; c, control; h, hour; w, week.\nIn view of the results shown above, the expression level of estrogen receptor alpha was directly assayed."}, "MDA-MB-468 cells [2]": {"system": "MDA-MB-468 cells", "experiment": "Resazurin cell viability assay with APC1 and cisplatin or doxorubicin, MDA-MB-468 cells", "format": "cell-based, human", "settings": "MDA-MB-468 pre-incubated with APC1 250 μg/ml; doxorubicin 0.3, 0.5, 1 μM, 48 hours; concentration dependent", "method": "Cells treated with APC1 were seeded with APC1 at 250 μg/ml. The cells were incubated overnight.\nThen the media was aspirated from the plates, and 100 μl of the treatment solutions were added to the appropriate wells, each treatment in triplicates. The cells were incubated for 48 hours."}, "[3]": {"system": "human ovarian cancer cells (OV90)", "experiment": "Relative tumor volume in nude mice inoculated with human ovarian cancer cells", "format": "in vivo", "settings": "OV90 tumors", "description": "During the treatment period, each mouse was weighted, and the tumor size was measured by Digital caliper.\nWhen the tumors exceeded a volume of 40 mm^3 or 50 mm^3 (for OV90 and Panc1, respectively), the mice were randomly divided into four groups of 8 mice each, as follows. A control group was treated with saline only, the APC1-treated group was treated three times a week with doses of APC1 at 15 mg/kg each, the doxorubicin and APC treated group was treated twice a week with doses of APC1 (at 15 mg/kg each) and once a week with doxorubicin (at 3 mg/kg) and the doxorubicin-treated group was treated with doxorubicin only, once a week at a dose of 3 mg/kg. These dosing protocols were repeated throughout the experiment, namely for 5 weeks."}, "[4]": {"system": "ovarian cancer cells OV90 and OV3", "experiment": "Glutathione level in ovarian cancer cells treated with APC1", "format": "cell-based, human", "settings": "ovarian cancer cells (FIG. 18A)", "method": "Gluthatione Assay Kit (Sigma CS0260);\nCell lines (MDA-MB-231, MDA-MB-468) were grown in 75 cm^2 cell culture flask, reached 80-90% confluence. The cells were treated with APC1 (250 μg/ml, 2 times per week for 1 week).\nCells were washed twice with 10 ml PBS, PBS (5 ml) was added and the cells were collected by scrapping, centrifuged at 300G, 4° C. for 5 minutes, the supernatant was then discarded and the cells were treated with APC1 as indicated above. The values of the Glutathione Standard Solutions were used to determine the standard curve and the delta A412/min equivalent to 1 nmole of reduced glutathione per well was calculated according to manufacturer's instructions.\nAs detailed above, the ovarian cancer cells OV90 and OV3, the pancreatic cancer cells BxPC3 and Panel and the TNBC cancer cells MDA-MB-231 and MDA-MB-468 were treated with APC1 and then the relative glutathione levels in these cells was measured as detailed above."}}}
{"sequence": "EKGAAFSPIYPRRK (C terminal peptide of KTPAF50) [APC1, polypeptide consisting of the 14 C-terminal amino acid residues of the peptide KTPAF50]", "values": [{"measurement": "apoptosis with APC1 per se", "setting": "MDA-MB-231 cells; APC1 alone (FIG. 5A and FIG. 5B)", "value": "insignificant (if any)"}, {"measurement": "level of cellular apoptosis", "setting": "MDA-MB-231 cells; MDA-MB-231, prolonged incubation, Kadcyla 96 hours (FIG. 6)", "value": "low level of apoptosis"}, {"measurement": "level of apoptosis", "setting": "MDA-MB-468 cells [1]", "value": 15, "unit": "%"}, {"measurement": "expression level of estrogen receptor alpha", "setting": "estrogen receptor alpha", "value": "clear increase"}, {"measurement": "sensitivity to doxorubicin (relative cell viability)", "setting": "MDA-MB-468 cells [2]", "value": "increased the sensitivity"}, {"measurement": "effect on tumor volume compared with doxorubicin-treated group", "setting": "[3]; APC1 15 mg/kg three times a week", "value": "more pronounced"}, {"measurement": "relative tumor volume", "setting": "[3]; APC1 15 mg/kg, doxorubicin 3 mg/kg once a week, 5 weeks, control increased linearly", "value": "modest increases"}, {"measurement": "level of glutathione", "setting": "[4]", "value": "decreased"}]}
